# Source: patent publication US20120189706A1, “Macrocystis Pyrifera Derived Health and Wellness Products and Methods of Using the Same” (Knocean Sciences, Inc., priority 2009, published 2012)
# Columns and labels:
# HSV-1 strain HF = experiment: HSV Cytoprotection assay; format: cell-based
# Description: The HSV Cytoprotection assay uses Vero cells and HSV-1 strain HF or HSV-2 strain MS. […] Each assay includes acyclovir (ACV) as a positive control. […] The standard viruses used for this assay are HSV-1 strain HF and HSV-2 strain MS (other viruses available upon request). […] For each assay, a pre-titered aliquot of virus is removed from the freezer (−80° C.) and allowed to thaw slowly to room temperature in a biological safety cabinet. The virus is resuspended and diluted into tissue culture medium such that the amount of virus added to each well is the amount determined to give between 85 to 95% cell killing at 5 days post-infection.
# [1] = Compound cytotoxicity in HSV Cytoprotection assay (MTS); format: cell-based; conditions: African green monkey (Cercopithecus aethiops), Vero cells (uninfected, cells plus compound only), read-out: TC50
# HIV-1 strain IIIB = experiment: HIV-1 Cytoprotection assay; format: cell-based
# RSV strain Long = experiment: Respiratory Syncytial Virus (RSV) Cytoprotection assay; format: cell-based; conditions: human respiratory syncytial virus, 168 h, A549 cells, 7 days
# Description: The Respiratory Syncytial Virus (RSV) Cytoprotection assay uses A549 cells and RSV strain Long. […] Each assay includes ribavirin (RBV) as a positive control. […] The virus used for this assay is RSV strain Long. […] For each assay, a pre-titered aliquot of virus is removed from the freezer (−80° C.) and allowed to thaw slowly to room temperature in a biological safety cabinet. The virus is resuspended and diluted into tissue culture medium such that the amount of virus added to each well is the amount determined to give between 85 to 95% cell killing at 6-7 days post-infection.
# Vero E6 cells = experiment: Compound cytotoxicity in Dengue Virus Cytoprotection assay (MTS); conditions: 7 days
# [2] = tested on: Influenza A strain A/Victoria/3/75 (H3N2); experiment: Influenza A Cytoprotection assay; format: cell-based; conditions: Influenza A virus, H3N2, 168 h, MDCK cells, 7 days
# Coxsackie A strain A7 = experiment: Coxsackie A virus Cytoprotection assay; format: cell-based; conditions: MRC5, 168 h, MRC-5 cells, 7 days
# Description: (§1) The Coxsackie A virus Cytoprotection assay uses MRC-5 cells and Coxsackie A strains A7 or A21. […] Each assay includes ribavirin (RBV) as a positive control. […] The viruses used for this assay are Coxsackie A strains A7 or A21. […] For each assay, a pre-titered aliquot of virus is removed from the freezer (−80° C.) and allowed to thaw slowly to room temperature in a biological safety cabinet. The virus is resuspended and diluted into tissue culture medium such that the amount of virus added to each well is the amount determined to give between 85 to 95% cell killing at 7 days post-infection.
# Rhinovirus strain 1B = experiment: Rhinovirus Cytoprotection assay in MRC-5 cells; format: cell-based
# Description: as §1, with “Rhinovirus” for “Coxsackie A virus”, “Rhinovirus” for “Coxsackie A”, “1B, 14,” for “A7”, “26.” for “A21.”, “enviroxime (ENV)” for “ribavirin (RBV)”, “6-7” for “7”
# MRC-5 cells = experiment: Compound cytotoxicity in Rhinovirus Cytoprotection assay (MTS); format: cell-based, Human; conditions: 7 days
# Description: The Rhinovirus Cytoprotection assay uses MRC-5 cells and Rhinovirus strains 1B, 14, or 26. […] Each assay includes enviroxime (ENV) as a positive control.
compound,measurement,setting,value
"Nc1nc2c(ncn2COCCO)c(=O)[nH]1 [Acyclovir, acyclovir]",IC50,"HSV-1 strain HF; Human alphaherpesvirus 1, 120 h, HSV-1 Strain HF, Vero cells, 5 days",6.92 µM
same,Antiviral Index,"HSV-1 strain HF; TC50/IC50, HSV-1",>14.5
same,CC50 at 5 days,[1],> 100 µM
Cc1cn([C@H]2C[C@H](N=[N+]=[N-])[C@@H](CO)O2)c(=O)[nH]c1=O [AZT],CC50,CEM-SS cells,> 1 µM
same,IC50,"HIV-1 strain IIIB; HIV-1 Strain IIIB, CEM-SS cells, 6 days",0.172 µM
same,Antiviral Index,"HIV-1 strain IIIB; TC50/IC50, HIV-1",>5.83
"NC(=O)c1ncn([C@@H]2O[C@H](CO)[C@@H](O)[C@H]2O)n1 [Ribavirin, ribavirin]",IC50,RSV strain Long,12.2 µg/mL
same,TC50,Vero E6 cells,>200 µg/mL
same,IC50,[2],4.45 µg/mL
same,IC50,Coxsackie A strain A7,7.04 µg/mL
"CC(C)S(=O)(=O)n1c(N)nc2ccc(/C(=N/O)c3ccccc3)cc21 [Enviroxime, enviroxime]",IC50,"Rhinovirus strain 1B; Enterovirus, MRC5, 168 h, Rhinovirus Strain 1B, MRC-5 cells, 7 days",0.485 µg/mL
same,Antiviral Index,"Rhinovirus strain 1B; TC50/IC50, Rhinovirus",>20.6
same,TC50,MRC-5 cells,>10 µg/mL
